Results published in US4056540A, “4-Phenyl-1,3-benzodioxans” (Bristol-Myers Company, priority 1975, dated 1977).
Structures can show the parent of a compound that is named as a salt. Where two headings read alike, the source gives them in different places.

Tests used:
audiogenic seizures = assay: Audiogenic Seizures, mouse; format: in vivo; details: for ED50: 1 h, po, read-out: ED50 Audiogenic Seizure Mouse; for blocking of tonic convulsions induced by audiogenic seizures: result in words
Experimental: (§1) ^1 Test compounds including reference agents were administered orally
(§2) either as water solutions or as fine suspensions in Tween by gastric
(§3) intubation 60 min prior to the test. There were at least 3 animals per
^3 Audiogenic Seizures - Mice, which were genetically bred for the
susceptability to sound induced seizures (O'Grady Farms) were placed into
the sound attenuated box and exposed to a 120 sec sound stimulus of 85 db
and 10,000 c/sec frequincy. Prevention of tonic extension of hind limbs
was used as a criterion for drug effect.

[1] = test system: tonic convulsions induced by maximal electroshock; assay: Maximal Electroshock Test, rat; format: in vivo; details: 1 h, po, read-out: ED50 Maximal Electroshock Rat
Experimental: as §1, §2, §3
(§4) ^2 Maximal Electroshock Test - Animals were subjected to an 80mA shoc
(§5) of 0.5 sec duration by a means of corneal electrodes using the specially
(§6) designed apparatus manufactured by Wahlquist Instrument Co. Prevention of
(§7) tonic extension by hind limbs was used as a criterion for drug effect.

[2] = test system: pentylenetetrazole convulsions; assay: Pentylenetetrazol Infusion (Mouse); format: in vivo; details: for ED50: 1 h, po, read-out: ED50 Pentylenetetrazole Mouse (infusion); for antagonism of all the excitatory signs induced by pentylenetetrazol: clonic and tonic convulsions and lethality, result in words
Excerpt: (§8) There were at least 3 animals per
^4 Pentylenetetrazol Infusion (Mouse) - The procedure originally
described by Orloff, M. H. et al., Proc. Soc. Exp. Biol. 70:254 (1949) an
adopted by our laboratories was used.

[3] = test system: pentylenetetrazole lethality; assay: Pentylenetetrazol Standard Dose, mouse; format: in vivo; details: for ED50: 1 h, mouse, po, pentylenetetrazol 125 mg/kg ip, prevention of lethality (footnote 5); for effectiveness against pentylenetetrazole: result in words, species not given
Excerpt: as §8
(§9) Prevention of lethality was used as criterion for […]

[4] = test system: pentylenetetrazole lethality; assay: Pentylenetetrazol Standard Dose, rat; format: in vivo; details: 1 h, po, pentylenetetrazol 125 mg/kg ip, prevention of lethality (footnote 5)
Excerpt: as §8, §9

[5] = test system: tonic convulsions induced by maximal electroshock; assay: Maximal Electroshock Test, mouse; format: in vivo; details: for ED50: 1 h, po, read-out: ED50 Maximal Electroshock Mouse; for blocking of tonic convulsions induced by maximal electroshock: result in words, species not given
Experimental: as §1, §2, §3, §4, §5, §6, §7

[6] = test system: ouabain-induced ventricular arrhythmias; assay: Reversion of ouabain-induced arrhythmia in anesthetized dogs; format: in vivo, dog; details: for ED100: Canis lupus familiaris, 0.5 h, read-out: I. V. Reverting Dose
Experimental: The compounds were also tested in dogs for their reversion activity in ouabain-induced arrhythmia.
(§10) Anesthetized dogs were used for the production of ouabain-induced ventricular arrhythmias. The arrhythmia consisted of a nodal or ventricular tachycardia. The procedure used to establish the arrhythmia as well as the criteria employed to determine anti-arrhythmic activity generally was that employed by Lucchesi et al. ^1
1. Lucchesi, B. L. and H. F. Hardman: The influence of dichloroisoproterenol (DCI) and related compounds upon ouabain and acetylstrophanthidin induced cardiac arrhythmias.

in vivo = details: mouse, po, 24 hours observation
Excerpt: hours following drug administration.

[7] = Effect on aortic blood pressure in the ouabain-arrhythmia anesthetized dog; format: in vivo; details: iv; for effect on aortic blood pressure: result in words
Experimental: as §10
Anti-arrhythmic activity of the compounds was determined by rapid intravenous injection and compared to lidocaine, disopyramide and aprindine The average prolonged reversion doses are shown below: […]

[8] = mouse, 60 min prior to test, prevention of tonic extension
[9] = rat, 60 min prior to test, prevention of tonic extension of hind limbs
[10] = mouse, pentylenetetrazol infusion (footnote 4)
[11] = mouse, 60 min prior to test, prevention of tonic extension of hind limbs
[12] = anesthetized dog, rapid intravenous injection, IV ED100, normal sinoatrial rhythm for greater than 30 mins

Structure (SMILES): O=C1NC(=O)C(c2ccccc2)(c2ccccc2)N1 [Diphenylhydantoin Na, reference compound]
- ED50 (audiogenic seizures; [8]): 10 mg/kg
- ED50 [1, 9]: 30 mg/kg
- ED50 [2, 10]: 20 mg/kg
- ED50 [3]: > 50 mg/kg
- ED50 [4]: 40 mg/kg
- ED50 [5, 11]: 10 mg/kg

Structure (SMILES): CN1C(=O)CN=C(c2ccccc2)c2cc(Cl)ccc21 [Diazepam, reference compound]
- ED50 (audiogenic seizures; Mus musculus): 0.5 mg/kg
- ED50 ([1]; Rattus norvegicus): 10 mg/kg
- antagonism of all the excitatory signs induced by pentylenetetrazol [2]: able to antagonize all the excitatory signs
- ED50 ([5]; Mus musculus): 6 mg/kg

Structure (SMILES): CCN(CC)CC(=O)Nc1c(C)cccc1C [Lidocaine, reference compound]
- ED100 ([6]; iv): 6.4 ± 1.4 mg/kg

Structure (SMILES): CCC1(c2ccccc2)C(=O)NC(=O)NC1=O [Phenobarbital Na, reference compound]
- ED50 (audiogenic seizures; Mus musculus): 2.5 mg/kg
- ED50 ([1]; Rattus norvegicus): 8 mg/kg
- ED50 ([2]; Mus musculus): 8 mg/kg
- antagonism of all the excitatory signs induced by pentylenetetrazol [2]: able to antagonize all the excitatory signs
- LD50 at 24 h (in vivo): 265 mg/kg
- ED50 [3]: 15 mg/kg
- ED50 [4]: 20 mg/kg
- ED50 ([5]; Mus musculus): 10 mg/kg

Structure (SMILES): CN1C(=O)OC(C)(C)C1=O [Trimethadione, reference compound]
- ED50 (audiogenic seizures; [8]): 150 mg/kg
- ED50 [1, 9]: 300 mg/kg
- ED50 [2, 10]: 200 mg/kg
- antagonism of all the excitatory signs induced by pentylenetetrazol [2]: able to antagonize all the excitatory signs
- LD50 at 24 h (in vivo): 2170 mg/kg
- ED50 [3]: 400 mg/kg
- ED50 [4]: 100 mg/kg
- ED50 [5, 11]: > 400 mg/kg

Structure (SMILES): CCN(CC)CCCN(c1ccccc1)C1Cc2ccccc2C1 [Aprindine, reference compound]
- ED100 [6, 12]: 2.46 ± 0.83 mg/kg

Structure (SMILES): CN(C)CCCNC(=O)[C@H]1Oc2ccc(Cl)cc2[C@@H](c2ccccc2)O1.Cl (relative stereo) [BL-4971A, cis-6-Chloro-4-phenyl-N-(3-dimethylaminopropyl)1,3-benzodioxan-2-carboxamide hydrochloride]
- ED100 [6, 12]: 5 mg/kg
- effect on aortic blood pressure [7]: No appreciable effect

Structure (SMILES): CC(C)NC[C@H]1Oc2ccc(Cl)cc2[C@H](c2ccccc2F)O1.Cl (relative stereo) [BL-3681A, trans-6-Chloro-4-(2-fluorophenyl)-2-(2-propylaminomethyl)-1,3-benzodioxan hydrochloride]
- ED50 (audiogenic seizures; [8]): 10 mg/kg
- blocking of tonic convulsions induced by audiogenic seizures (audiogenic seizures): effective blocking agents of tonic convulsions
- ED50 [1, 9]: 15 mg/kg
- ED50 [2, 10]: 12 mg/kg
- LD50 at 24 h (in vivo): 300 mg/kg
- ED50 [3]: > 50 mg/kg
- effectiveness against pentylenetetrazole [3]: practically ineffective
- ED50 [4]: > 40 mg/kg
- ED50 [5, 11]: 12 mg/kg
- blocking of tonic convulsions induced by maximal electroshock [5]: effective blocking agents of tonic convulsions

Structure (SMILES): CC(C)N(CCC(C(N)=O)(c1ccccc1)c1ccccn1)C(C)C (centres unmarked) [Disopyramide, reference compound]
- ED100 [6, 12]: 4.5 ± 1.3 mg/kg

Structure (SMILES): CNC[C@@H]1Oc2ccc(Cl)cc2[C@@H](c2ccccc2)O1 (relative stereo) [BL-3100]
- ED100 [6, 12]: > 10 mg/kg
- Decrease in mean aortic pressure [7]: 50 mmHg

Structure (SMILES): CC(C)NC[C@@H]1Oc2ccccc2[C@H](c2ccccc2)O1 (relative stereo) [BL-3418]
- ED100 [6, 12]: 3 to 5 mg/kg

Structure (SMILES): NC[C@@H]1Oc2ccc(Cl)cc2[C@H](c2ccccc2)O1 (relative stereo) [BL-3069]
- blocking of tonic convulsions induced by audiogenic seizures (audiogenic seizures): effective blocking agents of tonic convulsions
- ED50 [1, 9]: > 20 mg/kg
- ED50 [2, 10]: 12 mg/kg
- LD50 at 24 h (in vivo): 300 mg/kg
- effectiveness against pentylenetetrazole [3]: practically ineffective
- ED50 [4]: > 40 mg/kg
- ED50 [5, 11]: 25 mg/kg
- blocking of tonic convulsions induced by maximal electroshock [5]: effective blocking agents of tonic convulsions

Structure (SMILES): CNC[C@H]1Oc2ccc(Cl)cc2[C@@H](c2ccccc2)O1.Cl (relative stereo) [BL-3168, cis-6-Chloro-2-methylaminomethyl-4-phenyl-1,3-benzodioxan hydrochloride]
- ED50 (audiogenic seizures; [8]): 2.5 mg/kg
- blocking of tonic convulsions induced by audiogenic seizures (audiogenic seizures): effective blocking agents of tonic convulsions
- ED100 [6, 12]: > 10 mg/kg
- ED50 [1, 9]: 15 mg/kg
- ED50 [2, 10]: 5 mg/kg
- LD50 at 24 h (in vivo): 300 mg/kg
- ED50 [3]: > 50 mg/kg
- effectiveness against pentylenetetrazole [3]: practically ineffective
- ED50 [4]: > 40 mg/kg
- Decrease in mean aortic pressure [7]: 20 mmHg
- ED50 [5, 11]: 10 mg/kg
- blocking of tonic convulsions induced by maximal electroshock [5]: effective blocking agents of tonic convulsions

Structure (SMILES): CC(C)NC(=O)[C@@H]1Oc2ccc(Cl)cc2[C@@H](c2ccccc2)O1 (relative stereo) [BL-3374]
- ED100 [6, 12]: > 10 mg/kg

Structure (SMILES): CN(C)CCCNC(=O)[C@H]1Oc2ccccc2[C@@H](c2ccccc2)O1.Cl (relative stereo) [BL-4981A, cis-4-Phenyl-N-(3-dimethylaminopropyl)-1,3-benzodioxan-2-carboxamide hydrochloride]
- ED100 [6, 12]: > 10 mg/kg

Structure (SMILES): CC(C)NC[C@@H]1Oc2ccccc2[C@@H](c2ccccc2)O1 (relative stereo) [BL-3394]
- ED100 [6, 12]: ~10 mg/kg
- effect on aortic blood pressure [7]: gressive fall in aortic

Structure (SMILES): CC(C)NC[C@@H]1Oc2ccc(Cl)cc2[C@@H](c2ccccc2)O1 (relative stereo) [BL-3379]
- ED100 [6, 12]: > 10 mg/kg

Structure (SMILES): CN(C)CCCNC(=O)[C@H]1Oc2ccc(Cl)cc2[C@H](c2ccccc2)O1.Cl (relative stereo) [BL-4932A, trans-6-Chloro-4-phenyl-N-(3-dimethylaminopropyl)-1,3-benzodioxan-2-carboxamide hydrochloride]
- Transient reversion at ([6]; anesthetized dog, iv, transient reversion only (N=2)): 10 mg/kg
- transient fall in aortic blood pressure ([7]; at 10 mg/kg (N=2)): 50 mmHg

Structure (SMILES): CNC(=O)[C@@H]1Oc2ccc(Cl)cc2[C@@H](c2ccccc2)O1 (relative stereo) [BL-3167]
- ED100 [6, 12]: > 10 mg/kg

Structure (SMILES): CNC(=O)[C@@H]1Oc2ccc(Cl)cc2[C@H](c2ccccc2)O1 (relative stereo) [BL-4093]
- ED100 [6, 12]: > 10 mg/kg

Structure (SMILES): CC(C)NC[C@@H]1Oc2ccc(Cl)cc2[C@H](c2ccccc2)O1 (relative stereo) [BL-3396, cis-6-Chloro-4-phenyl-2-(2-propylaminomethyl)-1,3-benzodioxan hydrochloride]
- ED50 (audiogenic seizures; [8]): 2.5 mg/kg
- ED50 [1, 9]: 10 mg/kg
- ED50 [2, 10]: 3 mg/kg
- LD50 at 24 h (in vivo): 400 mg/kg
- ED50 [3]: > 50 mg/kg
- ED50 [4]: > 40 mg/kg
- ED50 [5, 11]: 10 mg/kg
